# Assay results taken from patent US20030219712A1, “Addition of glycolysis inhibitor to a pathogen reduction and storage solution” (priority 2002, published 2003).
# Assays:
# Format in all cases: cell-based
# [1] = test system: pathogen reduced platelets; assay: Glucose consumption of pathogen reduced platelets over time; settings: 10 mM 2-deoxy-D-glucose; riboflavin, 7 J/cm^2 320 nm light; vs platelets containing no 2-deoxy-D-glucose (FIG. 2)
# From the text: (§1) The following figures graph the quality of pathogen reduced platelets over a five day storage period. Platelets were separated from whole blood and collected using a blood collection device such as the COBE Spectra™ or TRIMA® apheresis systems available from Gambro BCT Inc., Lakewood, Colo., USA. However, it should be noted that any device known in the art for separating blood into components may be used to collect platelets without departing from the spirit and scope of the present invention.
# (§2) Collected platelets were suspended in a volume of 278 mL of fluid containing […] riboflavin and either with or without a glycolytic inhibitor. 2-deoxy-D-glucose is one example of a glycolytic inhibitor which may be used in the present invention. The platelets were irradiated in a Sengewald bag (available from Sengewald Verpackungen GmbH & Co. KG) (however any bag known in the art may be used) at 7 J/cm^2 with a 320 nm broad band eximer light.
# [2] = test system: pathogen reduced platelets; assay: pH over time of a solution of pathogen reduced platelets; settings: 10 mM 2-deoxy-D-glucose; five day storage; platelets without it show rapid drop in pH (FIG. 3)
# From the text: as §1, §2
# As shown, 10 mM 2-deoxy-D-glucose appears to maintain the pH of the platelets at approximately pH 7.40. Platelets without 2-deoxy-D-glucose experience a rapid drop in pH. Such results are expected because lactic acid is not produced at high rates if the glycolysis pathway is inhibited, and consequently, the pH of the solution remains at a relatively constant level.
# [3] = test system: pathogen treated platelets; assay: GMP-140 expression on the surface of pathogen treated platelets (platelet activation) over five day storage; settings: solutions containing 2-deoxy-D-glucose, vs solutions without glycolytic inhibitors (FIG. 4)
# From the text: as §1, §2
# FIG. 4 is a graph showing GMP-140 expression on the surface of pathogen treated platelets over a five day storage period. GMP-140 is a marker which appears on the surface of platelets which are activated. When transfused into a recipient, platelets which are activated during storage have a higher percentage of being quickly removed from the recipient's circulatory system than non-activated platelets.
# [4] = test system: pathogen reduced platelets; assay: Lactate production by pathogen reduced platelets over five day storage; settings: 10 mM 2-deoxy-D-glucose; five days in storage; riboflavin, 7 J/cm^2 320 nm light; vs platelets without 2-deoxy-D-glucose (FIG. 1)
# From the text: as §1, §2
smiles,measurement,setting,value
O=CC[C@@H](O)[C@H](O)[C@H](O)CO [2-deoxy-D-glucose],glucose consumption,[1],slower rate
same,pH of the platelets maintained during storage,[2],~7.40
same,percentage of GMP-140 expression,[3],lower percentage
same,production of lactic acid,[4],marked decrease
